Data taken from PMC6376154 (International Journal for Parasitology: Drugs and Drug …, 2019).
Read-outs that look alike come from different tables or passages of the source.

Legend:
[1] = system: P. falciparum 3D7 asexual blood stage; conditions: cited from earlier work
[2] = system: F100TpM, a bovine lymphocyte cell line infected by T. parva; assay: 3H-thymidine incorporation growth assay on F100TpM cells (screen at 1 μM and IC50 titration);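 for all read-outs here: growth inhibition compared against wells lacking compound, run in triplicate, and CC50 derived from 3H-thymidine uptake by PBMC stimulated with ConA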; conditions: for TI (CC50/IC50), therapeutic index: CC50 on Con A blasts divided by IC50 on F100TpM; for IC50: read-out: IC50 (μM) F100TpM, T. parva infected lymphocyte cell line, 48 h compound, 3H-thymidine incorporation
Protocol: (§1) All the MMV compounds were initially tested for inhibitory activity on the growth of F100TpM, a bovine lymphocyte cell line infected by T. parva. […] All compounds were tested in triplicate.
(§2) The radiolabeled precursor ^3H-thymidine is incorporated into DNA strands during cell replication and radioisotope incorporation is often used as a measure of cell proliferation.
(§3) IC50 values were calculated using the Graph Pad Prism 7 software (GraphPad Software, Inc., La Jolla, CA), and average values of radio-isotope incorporation in wells with and without compound on the growth of F100TpM cells. The CC50 values were calculated using ^3H-thymidine incorporation values determined on the growth of PBMC stimulated with ConA. The therapeutic index of a compound was calculated by dividing the CC50 value with the IC50 value.

[3] = system: bovine PBMC stimulated with ConA (Con A blasts)
Protocol: as §1, §2, §3

[4] = system: bovine PBMC stimulated with ConA (Con A blasts); assay: 3H-thymidine incorporation toxicity assay on ConA-stimulated uninfected bovine PBMC (CC50); conditions: read-out: CC50 (μM) Con A blasts; uninfected bovine PBMC stimulated with ConA, 48 h compound, 3H-thymidine incorporation
Protocol: as §1, §2, §3

[5] = MMV Malaria Box sheet, ref MMV data sheets
[6] = source StJude, ref ChEMBL_NTD, read-out: CHEMBL EC50
[7] = MMV Malaria Box sheet, ref MMV data sheets, read-out: EC50_nM
[8] = source GNF, ref ChEMBL_NTD, read-out: CHEMBL EC50
[9] = MMV Malaria Box data sheet, ref MMV data sheets
[10] = MMV Malaria Box data sheet, ref MMV data sheets, read-out: EC50_nM
[11] = ChEMBL-NTD value per source (GNF, GSK, StJude), several values in a cell follow the order of the sources, read-out: CHEMBL EC50
[12] = source GSK, ref ChEMBL_NTD, read-out: CHEMBL EC50

Q: Which results are given for Oc1ccccc1CN1CCC2(CCCN(Cc3ccccc3F)C2)C1 (stereo not shown) [MMV666116]?
A: percent_inh @ 5 uM ([1]; MMV Malaria Box data sheet (supplement mmc2.xls), ref MMV data sheet): 98%; EC50 ([1]; MMV Malaria Box data sheet (supplement mmc2.xls), ref MMV data sheet, read-out: EC50_nM): 0.548 µM; EC50 ([1]; value(s) per source (GSK, GNF, StJude), separated by semicolon, ref ChEMBL-NTD, read-out: CHEMBL EC50): 0.679 µM

Q: For CC(C)(C)c1ccc(C(=O)Nc2c3c(nn2-c2cccc(Cl)c2)CSC3)cc1 [MMV666123], which “percent_inh @ 5 uM” value [1, 5] is on record?
A: 93%

Q: What about the EC50 [1, 6] of the same molecule?
A: 15 µM

Q: Which results are given for CC1=C(CC(=O)c2cccc([N+](=O)[O-])c2)C(=O)c2ccccc2C1=O [MMV666125]?
A: percent_inh @ 5 uM [1, 5]: 95%; EC50 [1, 7]: 0.381 µM; EC50 [1, 8]: 2.84 µM

Q: Which “percent_inh @ 5 uM” value [1, 9] does the source give for CSC1=NC(=Nc2c(C)cccc2C)C2(CCC(C(C)(C)C)CC2)N1c1ccc(Cl)cc1 (stereo not shown) [MMV666596] here?
A: 96%

Q: And the EC50 [1, 10]?
A: 0.135 µM

Q: What about the EC50 [1, 8] of the same molecule?
A: 1.48 µM

Q: With CCCCCCc1cc2cc(-c3nc4ccccc4[nH]3)c(=Nc3ccccc3C)oc2cc1O [MMV666597] as the molecule, how does the EC50 [1, 11] read?
A: 2.12 µM

Q: For O=c1nc(C=Cc2ccc(Br)cc2)oc2ccccc12 [MMV666599], which “percent_inh @ 5 uM” value [1, 5] is on record?
A: 94%

Q: And the EC50 [1, 12]?
A: 1.05 µM

Q: What does the source list for CCOC(=O)c1c(C)n(-c2ccc(Cl)cc2)c2ccc(OC(=O)C=Cc3ccccc3)cc12 [MMV666600]?
A: percent_inh @ 5 uM [1, 9]: 97%; EC50 [1, 10]: 0.215 µM; EC50 [1, 12]: 0.698 µM

Q: For CCOC(=O)C1=C(c2ccccc2)N=c2sc(=Cc3cc(C)n(-c4ccc(F)cc4)c3C)c(=O)n2C1c1cccc(OC)c1OC (stereo not shown) [MMV666601], which “percent_inh @ 5 uM” value [1, 9] is on record?
A: 94%

Q: What about the EC50 [1, 10] of the same molecule?
A: 0.154 µM

Q: What about the EC50 [1, 8] of the same molecule?
A: 2.33 µM

Q: Which “percent_inh @ 5 uM” value [1, 5] does the source give for CCOC(=O)C1=C(C)N=c2sc(=Cc3ccccc3O)c(=O)n2C1c1ccc(OC)c2ccccc12 (stereo not shown) [MMV666604] here?
A: 97%

Q: What about the EC50 [1, 7] of the same molecule?
A: 1.51 µM

Q: What about the EC50 [1, 12] of the same molecule?
A: 1.26 µM

Q: Which results are given for O=[N+]([O-])c1ccc(C=NNc2nc3ccccc3[nH]2)cc1 [MMV666607]?
A: percent_inh @ 5 uM [1, 9]: 99%; EC50 [1, 10]: 0.142 µM; EC50 [1, 8]: 0.818 µM; EC50 [1, 12]: 0.283 µM

Q: Which EC50 [1, 11] does the source give for COc1ccccc1C(=O)ON=C(N)Cc1cccc2ccccc12 [MMV666686] here?
A: 0.352 µM

Q: With COc1cc(C(=O)ON=C(N)Cc2cccc3ccccc23)cc(OC)c1OC [MMV666687] as the molecule, how does the EC50 [1, 11] read?
A: 0.28 µM

Q: Which “percent_inh @ 5 uM” value [1, 9] does the source give for Cc1cc(C=C2SC(=Nc3ccccc3)N(C3CCCC3)C2=O)c(C)n1-c1ccc(Cl)cc1 [MMV666688] here?
A: 97%

Q: What about the EC50 [1, 10] of the same molecule?
A: 0.263 µM

Q: What about the EC50 [1, 12] of the same molecule?
A: 0.876 µM

Q: With COc1ccc(Nc2nc(NN=Cc3ccc(O)cc3)nc(Nc3ccc([N+](=O)[O-])cc3)n2)cc1 [MMV666689] as the molecule, how does the EC50 [1, 11] read?
A: 1.12 µM

Q: Which “percent_inh @ 5 uM” value [1, 9] does the source give for COc1ccc(C=C2SC(=N)N(c3ccccc3OC)C2=O)cc1 [MMV666691] here?
A: 97%

Q: And the EC50 [1, 10]?
A: 0.168 µM

Q: And the EC50 [1, 12]?
A: 0.3 µM

Q: With CCCCCCc1cc2cc(-c3csc(C=Cc4ccccc4)n3)c(=O)oc2cc1O [MMV666692] as the molecule, how does the EC50 [1, 11] read?
A: 0.97 µM

Q: For COc1cccc(C=Cc2nc(=O)c3ccccc3o2)c1OC [MMV666693], which “percent_inh @ 5 uM” value [1, 9] is on record?
A: 96%

Q: What about the EC50 [1, 10] of the same molecule?
A: 0.0238 µM

Q: And the EC50 [1, 12]?
A: 0.0644 µM

Q: Which “percent_inh @ 2 uM” value ([1]; 2 uM, MMV Malaria Box sheet, ref MMV data sheets) does the source give for CN(C)c1ccc(N2C(N)=NC(N)=NC2(C)C)cc1 [MMV667487] here?
A: 95%

Q: And the EC50 [1, 8]?
A: 0.0188 µM

Q: What about the EC50 [1, 6] of the same molecule?
A: 0.0728 µM

Q: With COc1ccc(CCn2c(=N)c(C(=O)NCc3cccnc3)cc3c(=O)n4cccc(C)c4nc32)cc1 [MMV667488] as the molecule, how does the EC50 [1, 11] read?
A: 1.4 µM

Q: With CO[C@@H](C(=O)N1Cc2[nH]nc(NC(=O)c3ccc(N4CCN(C)CC4)cc3)c2C1)c1ccccc1 [MMV676600] as the molecule, how does the “TI (CC50/IC50), therapeutic index” value [2] read?
A: <0.001

Q: What about the IC50 [2] of the same molecule?
A: 0.55 µM

Q: And the CC50 [3]?
A: < 0.001 µM

Q: What does the source list for CNC(=O)c1nn(C)c2c1C(C)(C)Cc1cnc(Nc3ccc(N4CCN(C)CC4)cc3)nc1-2 [MMV676602]?
A: TI (CC50/IC50), therapeutic index [2]: 0.86; IC50 [2]: 0.35 µM; CC50 [4]: 0.3 µM

Q: For Cc1nn(C)c(C)c1NS(=O)(=O)c1c(Cl)cc(-c2ccnc(N3CCNCC3)c2)cc1Cl [MMV688180], which “TI (CC50/IC50), therapeutic index” value [2] is on record?
A: <0.001

Q: What about the IC50 [2] of the same molecule?
A: 0.97 µM

Q: And the CC50 [4]?
A: < 0.001 µM

Q: Which IC50 [2] does the source give for O=C(Nc1ccc(F)c(-c2nc3ncc(-c4ccccc4)cc3[nH]2)c1)N1CCCC1 [MMV688372] here?
A: 0.61 µM

Q: With CC(=O)OCC1OC([S-])C(OC(C)=O)C(OC(C)=O)C1OC(C)=O.CCP(CC)CC.[Au+] (stereo not shown) [MMV688978, Auranofin, reference compound] as the molecule, how does the “TI (CC50/IC50), therapeutic index” value [2] read?
A: 0.74

Q: What about the IC50 [2] of the same molecule?
A: 0.54 µM

Q: What about the IC50 ([2]; listed as auranofin) of the same molecule?
A: < 1 µM

Q: And the CC50 [4]?
A: 0.4 µM
